Laboratory results taken from PubChem BioAssay AID179 (DTP/NCI, 2004).
The source made the active and inactive calls.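 How the source made its calls: active means compounds giving half or more protection of infected cells from virus-caused growth loss, again on retest; inactive means the rest.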

Tested on: CEM cells HIV-1 protection, formazan growth assay
Assay: NCI AIDS Antiviral Assay
Conditions: for IC50: measured here: growth of uninfected CEM cells
Summary of the method: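 Screen of anti-HIV-1 activity in human CEM cells using a formazan-based growth measurement at five drug concentrations. Hits with 50% or greater protection were repeated, and confirmation required reproducible complete protection.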

SMILES	EC50 [µM]	IC50 [µM]	outcome
CCOc1ccc(-n2nnc3c(N)nc(N)nc32)cc1	> 200	> 200	
S=C(NCCc1ccccc1)N1CCC(CCCC2CCN(C(=S)NCCc3ccccc3)CC2)CC1	> 200	> 200	
O=C1N2Cc3c4ccc5c3CN3C(=O)N6Cc7c(ccc(c7CN1C6(c1ccccc1)C23c1ccccc1)OCCOCCNCCOCCO4)OCCOCCNCCOCCO5 (centres undefined)	> 6.03	> 6.03	
C=C1CN(S(=O)(=O)c2ccc(C)cc2)CCCN(CC(C)(C)C)CCCN(S(=O)(=O)c2ccc(C)cc2)C1	> 200	10.5	
Cc1ccnc(NS(=O)(=O)c2ccc(NC(=O)c3ccc4nc5ccccc5c(Nc5ccc(S(=O)(=O)Nc6nccc(C)n6)cc5)c4c3)cc2)n1	> 200	83.2	
Cn1c(=O)c2c3oc(=O)cc(O)c3c(=O)n3c4ccccc4n(c1=O)c23	> 2.14	> 2.14	
CNC(=S)N/N=C1\CC(c2ccccc2)Oc2ccccc21 (centres undefined)			inactive
O=C(/C=C/c1ccc(OCC(=O)N2CCN(c3ccccc3)CC2)cc1)c1ccccc1	> 23.4	> 23.4	
O=c1ccc2cc([N+](=O)[O-])ccc2o1	> 646	363	
CC(CCC(=O)O)(c1ccc(O)c(CN(c2ccccc2)c2ccccc2)c1)c1ccc(O)c(CN(c2ccccc2)c2ccccc2)c1			inactive
NC1CSc2ccccc2NC1=O (centres undefined)	> 407	> 407	
CN(C)Cc1cc(N=Nc2ccc(Cl)c(Cl)c2)ccc1O	> 200	18.6	
NC(=O)C(=CN1CC(=O)NC1=S)C(N)=O	> 200	> 200	
CCCCCCCCCCC(=O)CCCCCCC(=O)O			inactive
c1ccc(COC2(OCc3ccccc3)CC3OC2C2NN=NC32)cc1 (centres undefined)	> 141	9.77	
CCOC(=O)C1(Cc2ccccc2)Cc2cc3c(cc2C1=O)CCC3 (centres undefined)	> 200	14.8	
Cn1ccc(C(=O)N2CCSC2=S)c(OCc2ccccc2)c1=O	> 200	120	

SMILES	EC50 [µM]	IC50 [µM]	outcome
OCC(O)C(Cl)CCl (centres undefined)	> 200	> 200	
CC(C)(C)[Si](C)(C)OCC1OC(n2ccc(=O)[nH]c2=O)C(O[Si](C)(C)C(C)(C)C)[C@]12N[C@H](C(=O)O)CS2 (some centres undefined)	> 200	10.7	
CC(=O)Nc1ccc([As](=O)(O)O)cc1C(=O)O	> 200	> 200	
COc1cc2c(cc1O)C(Cc1ccc(Oc3cc(C[C@H]4c5cc(OC)c(OC)cc5CCN4C)ccc3OC)cc1)N(C)CC2 (some centres undefined)			inactive
O=[N+]([O-])c1cc([As](=O)(O)O)ccc1F	> 200	> 200	
O=C(O)Cc1ccc(-n2nnc3c(=O)[nH][nH]c(=O)c32)cc1	> 200	> 200	
N#CC(=N)c1ncn(CCO)c1NC(=O)C(F)(F)F	> 200	> 200	
CCOC(=O)C1(Cc2ccccc2)SCCCS1	> 91.2	> 91.2	
Cc1cccc(N2CC3CC4C=CC3(C2)O4)c1 (centres undefined)	> 200	> 200	
Cc1ccc(OCC2OC(n3cnc4nc(Nc5ccc(Cl)c(Cl)c5)nc(Cl)c43)CC2Oc2ccc(C)cc2)cc1 (centres undefined)	> 100	> 100	
COc1cc2c(cc1O)C1C(O2)c2c(OC)cc3c(c2OC1(C)C)CCC(C)(C)O3 (centres undefined)	> 200	32.4	
COc1ccc2c(c1)C(=O)[C@@](Nc1ccc(C=O)cc1)(OC)[C@@](OC)(c1ccc([N+](=O)[O-])cc1)O2	> 200	85.1	
Cc1ncc([N+](=O)[O-])n1CC(O)CCl (centres undefined)	> 200	> 200	
O=C1OC(=O)C2C1C(c1ccc([N+](=O)[O-])cc1)N1C3C(=O)OC(=O)C3C(c3ccc([N+](=O)[O-])cc3)N21 (centres undefined)	> 27.5	> 27.5	
Cc1ccc(S(=O)(=O)/N=S(\C)c2cccc(Cl)c2)cc1 (centres undefined)	> 200	170	
Cc1nc2c(sc3nc4ccccc4n32)c(=O)[nH]1	> 100	> 100	
CCCC1C(C#N)(C#N)C(C#N)=C(N)C1(C)C(C)=O (centres undefined)	> 200	> 200	
